# Test results published in US12403160B2, “Injection composition containing isolated mitochondria, and use thereof” (Paean Biotechnology Inc., priority 2020, dated 2025).
# Tests used:
# platelets = test system: platelets
# Description: After treatment, the resultant was incubated with shaking at 100 rpm at 37° C. for one hour.
# [1] = test system: platelets isolated from pig whole blood; experiment: Effect of storage solvent for mitochondria and antithrombotic agent on platelet aggregation; assay type: cell-based
# Description: Pig whole blood was centrifuged at 300×g for 5 minutes to obtain a cloudy yellow supernatant containing platelets and plasma. […] The obtained platelet precipitate was replaced with an equal amount of Dulbecco's phosphate-buffered saline (DPBS) solution, washed by centrifugation at 1,500×g for 15 minutes, and resuspended in an equal amount of a fresh DPBS solution.
# In order to confirm the effect of a storage solvent for mitochondria and an antithrombotic agent on inhibition of platelet aggregation, the mitochondria of human umbilical cord-derived mesenchymal stem cells (UC-hMSC) were isolated and stored in saline and SHE solution, which is a storage solvent, for one hour, respectively, and the resultant was treated with the platelets isolated from pig whole blood and then treated with heparin. After 1 hour, the result was confirmed with a confocal laser scanning microscope.
# platelets in the blood = experiment: Number of platelets in the blood after intravenous injection of mitochondria; assay type: in vivo, BALB/c-nu/nu mice; details: UC-hMSC mitochondria 50 μg/0.3 mL, single intravenous injection, mice
# Description: The specific experimental design, which was performed so as to confirm the effect of reducing the number of platelets during intravascular injection of mitochondria into mice, is as shown in Table 2 below.
compound,measurement,setting,value
NCC(=O)O [glycine],glycine concentration at which mitochondria-induced platelet aggregation is inhibited,"platelets; 1 μg UC-hMSC mitochondria in 10 μL Tris-trehalose buffer with glycine 0-100 mM, 1 mL platelet solution, 37° C., one hour",≥ 25 mM
same,inhibition of mitochondria-induced platelet aggregation at low glycine concentration,platelets; low concentration of glycine in Tris-trehalose buffer,could not inhibit platelet aggregation
heparin,inhibition of mitochondria-induced platelet aggregation with rising concentration of antithrombotic agent,[1]; UC-hMSC mitochondria stored in SHE solution,inhibited as the concentrations of heparin as an antithrombotic agent increased
same,inhibition of mitochondria-induced platelet aggregation by antithrombotic agent,"[1]; UC-hMSC mitochondria stored in saline and SHE solution, pig platelets",partially inhibited
same,change in the number of platelets in the blood,platelets in the blood,"recovered to some extent, but the decrease in platelets was not completely inhibited"
